Measurements: article PMC8534003, “The Chemokine-Based Peptide, CXCL9(74-103), Inhibits Angiogenesis by Blocking Heparan Sulfate Proteoglycan-Mediated Signaling of Multiple Endothelial Growth Factors” (Cancers, 2021)
Entries after “also recorded” stand apart in the source; their conditions may differ.

Legend:
[1] = system: human microvascular endothelial cells (HMVECs); experiment: Endothelial cell proliferation assay (MTT or ATP lite); type: cell-based; conditions: peptide 3 µM, 3 to 4 days, HMVECs, 1% FCS, mean ± SEM, n ≥ 4
Experimental: The ability of the CXCL9-derived peptides to inhibit growth factor-induced proliferation of endothelial cells was assessed. HMVECs were seeded at 5 × 10^3 cells/well in EBM™-2 medium containing 1% (v/v) FCS (proliferation medium). After settling of the cells, they were stimulated with EGF, VEGF165 (both 5 ng/mL) or FGF-2 (3 ng/mL) as a single stimulus or in combination with CXCL9(86-103) or CXCL9(74-103) at 0.3 or 3 µM in proliferation medium or left untreated. HMVECs were also treated with 0.3 or 3 µM of CXCL9(74-103) or 3 µM of CXCL9(86-103) alone to assess the effect of CXCL9-derived peptide treatment on spontaneous proliferation. After 3 to 4 days, a 3-(4,5-dimethylthiazol-2-yl)-2,5-diphenyl tetrazolium bromide (MTT) or ATP lite assay was performed. The ATP lite assay was performed according to the manufacturer’s instructions (Perkin Elmer, Waltham, MA). When MTT was used as substrate, the medium was replaced with 200 µL of MTT solution (RPMI without phenol red containing 0.4 g/L MTT) and the cells were incubated at 37 °C and 5% CO2 in the dark for 4 hours. Then, the MTT solution was discarded and the formed formazan crystals were dissolved in 200 µL acidic propanol [0.04 M HCl, 0.1% (v/v) NP-40 in isopropanol] under continuous shaking in the dark for 10 min. The optical densities were measured at 570 nm and 630 nm (reference wavelength).

[2] = system: MDA-MB-231 breast cancer xenograft; experiment: In vivo MDA-MB-231 breast cancer mouse model; set-up: species or system human tumor cells in SCID mice; conditions: 800 µg s.c. osmotic pump; text says data not shown
Experimental: Six-to-eight-week-old female SCID mice were s.c. injected with 6 × 10^6 MDA-MB-231 breast tumor cells (American Type Culture Collection, Manassas, VA) in 200 µL PBS. Three days later, mice were anesthetized as described (vide supra), a dorsal incision was made and an ALZET osmotic pump (model 1002, DURECT Corporation) containing 800 µg/100 µL CXCL9(74-103) or CXCL9(86-103) or 100 µL PBS was s.c. implanted, which delivered a continuous dose over the course of two weeks. Three weeks after tumor cell injection, mice were sacrificed. Tumors were isolated, minced and added to 2 mL of tumor cell medium [TCM; 5% (v/v) FCS in RPMI 1640 + Glutamax (Gibco)]. After centrifugation (500 g, room temperature, 5 min), minced tumors were incubated at 37 °C for 30 min in 3 mL of digestion medium [2 mg/mL collagenase D, 0.1 mg/mL DNAse and 5 U/mL dispase (Corning Life Sciences) in TCM]. Subsequently, tumor fragments were further disrupted using a 1 mL syringe and 18G needle, and 2 mL of digestion medium was added for an additional incubation at 37 °C for 15 min. […] After centrifugation (500 g, 4 °C, 5 min), the pellet was resuspended in 500 µL of 2% (v/v) FCS in PBS and the cells were counted. To assess the anti-angiogenic potential of the CXCL9-derived peptides, the population of endothelial cells within the tumor samples was determined via flow cytometry (vide supra).

[3] = system: human microvascular endothelial cells (HMVECs); experiment: xCELLigence adhesion assay; type: cell-based; conditions: VEGF165 50 ng/mL, peptide 3 µM, 1 h, gelatin coat; n = 2–6
Experimental: The wells of an E-plate (ACEA Biosciences, Inc.) were washed and coated with 0.1% (v/v) gelatin in phosphate-buffered saline (PBS) at 37 °C for 1 h. Following a washing step, wells were incubated with 0.1% (v/v) bovine serum albumin (BSA) in PBS at 37 °C for 1 h. After washing, 50 µL basal MCDB131 medium was added and the plate was allowed to equilibrate at 37 °C. HMVECs were harvested and seeded at 4 × 10^4 cells/well together with 50 ng/mL VEGF165 with or without 0.03, 0.3 or 3 µM of CXCL9(74-103) or 3 µM of CXCL9(86-103) in 100 µL control medium (vide supra). Real-time changes in electrical impedance depicted as cell indices, as measure for cell adhesion and spreading, were analyzed using the xCELLigence® RTCA DP System. The adhesion of HMVECs was analyzed 1 h after seeding.

[4] = system: diabetes-induced vascular permeability, Sprague-Dawley rats; experiment: Retinal vascular permeability in streptozotocin-induced diabetic rats; type: in vivo, rat; conditions: intravitreal, equimolar CXCL9(74-103) 30 µg or CXCL9(86-103) 18 µg, two weeks, n = 12–15
Experimental: Male Sprague-Dawley rats (210–240 g) were fasted overnight and injected intraperitoneally (i.p.) with streptozotocin (55 mg/kg body weight, dissolved in citrate buffer, pH 4.5) to induce diabetes. After 3 days, the animals were anesthetized, diabetes was confirmed and the vitreous of the right eye was injected with equimolar amounts of CXCL9(74-103) (30 µg), CXCL9(86-103) (18 µg) or PBS (5 µL/injection). Diabetes-induced breakdown of the blood-retinal barrier as a consequence of increased vascular permeability was evaluated in retinas two weeks after streptozotocin injection, as previously described. Briefly, 30 min prior to sacrifice, fluorescein isothiocyanate (FITC)-conjugated dextran of 3-5 kDa (Sigma-Aldrich) was intravenously (i.v.) injected. After collection of a blood sample, rats were perfused with PBS. The retinas were excised, weighed and homogenized. The fluorescence in the retina lysates was measured using a SpectraMax® Gemini™ XPS system. For normalization of the data, the following equation was used to express the obtained results: Retinal FITC-dextran (µg)/retinal weight (g) Plasma FITC-dextran concentration (µg/µL) × circulation time (h)

Q: Which EGF-induced proliferation ([1]; EGF 5 ng/mL) does the source give for KKVLKVRKSQRSRQKKTT [CXCL9(86-103)] here?
A: could not significantly alter

Q: And the FGF-2-induced proliferation ([1]; FGF-2 3 ng/mL)?
A: significantly attenuated

Q: And the VEGF165-induced proliferation ([1]; VEGF165 5 ng/mL)?
A: could not significantly alter

Q: What about the tumor-associated angiogenesis [2] of the same sequence?
A: no anti-angiogenic activity

Q: And the “VEGF165-induced endothelial cell adhesion” value [3]?
A: No effect on VEGF-induced adhesion

Q: What about the “retinal vascular permeability (FITC-dextran leakage)” value [4] of the same sequence?
A: tended to decrease the vascular leakage, but this was not significant; also recorded: could not significantly improve diabetes-induced vascular leakage
